Assay results from the supplement of paper PMC10307832.

Assays:
Experiment in all cases: relative viability (nuclei count vs DMSO), 5 days (fraction); higher = more cells survive
[1] = compound: C=CCn1c(=O)c2cnc(Nc3ccc(N4CCN(C)CC4)cc3)nc2n1-c1cccc(C(C)(C)O)n1 [Adavosertib] + CS(=O)(=O)CCNCc1ccc(-c2ccc3ncnc(Nc4ccc(OCc5cccc(F)c5)c(Cl)c4)c3c2)o1 [Lapatinib] (partner 2 µM)
Procedure, shortened: (§1)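 Lung cancer cell lines were pin-tool dosed in 1536-well plates on the day after seeding, with either a lone drug or a fixed anchor-drug dose plus five library-drug doses (not always all listed) in √10 steps. Nuclei were counted on 4× images after 5 days. Relative viability is the ratio of treated-well to vehicle-well nuclei counts, with each value a median of duplicate plates.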

[2] = compound: COc1nc(N)nc2c1ncn2[C@@H]1O[C@H](CO)[C@@H](O)[C@@H]1O [Nelarabine] + Cc1nc(NC(=O)N2CCC[C@H]2C(N)=O)sc1-c1ccnc(C(C)(C)C(F)(F)F)c1 [Alpelisib] (partner 2 µM)
Procedure, shortened: as §1

[3] = compound: COc1nc(N)nc2c1ncn2[C@@H]1O[C@H](CO)[C@@H](O)[C@@H]1O [Nelarabine] + Cc1cc(Nc2cc(N3CCN(C)CC3)nc(Sc3ccc(NC(=O)C4CC4)cc3)n2)n[nH]1 [Tozasertib] (partner 0.1 µM)
Procedure, shortened: as §1

[4] = compound: COc1nc(N)nc2c1ncn2[C@@H]1O[C@H](CO)[C@@H](O)[C@@H]1O [Nelarabine] + O=C(c1cc(Cc2n[nH]c(=O)c3ccccc23)ccc1F)N1CCN(C(=O)C2CC2)CC1 [Olaparib] (partner 8 µM)
Procedure, shortened: as §1

| Cell Line | relative viability ([1]; first compound 0.01 µM) | relative viability ([1]; first compound 0.03162 µM) | relative viability ([1]; first compound 0.1 µM) | relative viability ([1]; first compound 0.3162 µM) | relative viability ([2]; first compound 0.01 µM) | relative viability ([2]; first compound 0.03162 µM) | relative viability ([2]; first compound 0.1 µM) | relative viability ([2]; first compound 0.3162 µM) | relative viability ([2]; first compound 1 µM) | relative viability ([3]; first compound 0.01 µM) | relative viability ([3]; first compound 0.03162 µM) | relative viability ([3]; first compound 0.1 µM) | relative viability ([3]; first compound 0.3162 µM) | relative viability ([3]; first compound 1 µM) | relative viability ([4]; first compound 0.01 µM) | relative viability ([4]; first compound 0.03162 µM) | relative viability ([4]; first compound 0.1 µM) | relative viability ([4]; first compound 0.3162 µM) | relative viability ([4]; first compound 1 µM) |
| --- | --- | --- | --- | --- | --- | --- | --- | --- | --- | --- | --- | --- | --- | --- | --- | --- | --- | --- | --- |
| NCI-H1915 | 0.984 | 0.923 | 1.02 | 0.959 | 1.2 | 1.05 | 1.11 | 1.07 | 1.06 | 0.576 | 0.417 | 0.633 | 0.475 | 0.459 | 0.25 | 0.264 | 0.261 | 0.251 | 0.24 |
| PC-14 | 0.344 | 0.319 | 0.297 | 0.407 | 0.857 | 0.97 | 1.02 | 1.04 | 0.947 | 0.625 | 0.645 | 0.597 | 0.599 | 0.631 | 0.265 | 0.205 | 0.31 | 0.251 | 0.294 |
| LK-2 | 0.866 | 1.05 | 1.01 | 0.97 | 1.58 | – | 1.13 | 1.12 | 1.04 | 0.172 | – | 0.161 | 0.147 | 0.156 | 0.689 | – | 0.701 | 0.601 | 0.635 |
| COR-L 105 | 0.361 | 0.428 | 0.373 | 0.349 | 1.15 | 1.11 | 1.03 | 1.3 | 0.985 | 0.356 | 0.353 | 0.302 | 0.362 | 0.433 | 0.554 | 0.666 | 0.592 | 0.697 | 0.541 |
| UMC-11 | 0.939 | 0.999 | 0.851 | 1.28 | 1.1 | 0.597 | 0.909 | 1.02 | 0.96 | 0.185 | 0.204 | 0.378 | 0.206 | 0.204 | 0.36 | 0.469 | 0.356 | 0.386 | 0.357 |
| NCI-H1975 | 0.878 | 0.805 | 0.895 | 0.667 | 0.785 | 0.489 | 0.73 | 0.773 | 0.764 | 0.69 | 0.689 | 1.05 | 0.911 | 0.926 | 1.04 | 0.942 | 0.823 | 0.856 | 0.797 |
| LXF-289 | 0.905 | 0.894 | 0.906 | 0.922 | 1.19 | 1.05 | 1.01 | 1.11 | 1.05 | 0.222 | 0.234 | 0.173 | 0.232 | 0.233 | 1.2 | 1.13 | 1.01 | 1.04 | 1.01 |
| NCI-H1993 | 0.798 | 0.865 | 0.894 | 0.8 | 0.704 | 0.736 | 0.756 | 0.712 | 0.689 | 0.662 | 0.553 | 0.623 | 0.586 | 0.571 | 1.19 | 0.993 | 0.865 | 0.939 | 0.984 |
| NCI-H23 | 0.935 | 1.25 | 0.855 | 0.328 | 0.637 | 0.719 | 0.606 | 0.686 | 0.693 | 0.594 | 0.327 | 0.377 | 0.369 | 0.509 | 0.32 | 0.235 | 0.294 | 0.33 | 0.335 |
| NCI-H2023 | 0.787 | 0.735 | 0.599 | 0.344 | 0.634 | 0.769 | 0.559 | 0.594 | 0.55 | 0.416 | 0.41 | 0.39 | 0.33 | 0.422 | 0.597 | 0.497 | 0.503 | 0.422 | 0.455 |
| COR-L23 | 1.06 | 1.09 | 0.769 | 0.415 | 0.969 | 0.768 | 0.743 | 0.869 | 0.747 | 0.199 | 0.165 | 0.168 | 0.22 | 0.185 | 0.432 | 0.31 | 0.301 | 0.373 | 0.363 |
| LCLC-97TM1 | – | 0.703 | 0.804 | 0.686 | 0.277 | 0.211 | 0.216 | 0.212 | 0.26 | 0.259 | 0.148 | 0.192 | 0.2 | 0.234 | – | – | 0.413 | 0.358 | 0.388 |
| NCI-H1734 | 1.07 | 1.07 | 1.07 | 0.825 | 0.746 | 0.67 | 0.709 | 0.653 | 0.704 | 0.305 | 0.253 | 0.253 | 0.257 | 0.292 | 0.688 | 0.597 | 0.689 | 0.61 | 0.654 |
| NCI-H1437 | 0.83 | 0.778 | 0.831 | 0.812 | 1.17 | 0.918 | 0.945 | 1.13 | 1.03 | 0.466 | 0.353 | 0.488 | 0.427 | 0.41 | 0.701 | 0.611 | 0.656 | 0.695 | 0.611 |
| NCI-H727 | 0.872 | 0.859 | 0.852 | 1.02 | 0.683 | 0.572 | 0.632 | 0.625 | 0.571 | 0.789 | 0.816 | 0.617 | 0.598 | 0.694 | 0.697 | 0.559 | 0.636 | 0.731 | 0.656 |
| NCI-H1651 | 0.956 | 0.715 | 0.752 | 0.682 | 1.15 | 0.963 | 1.12 | 1.02 | 0.855 | 0.944 | 0.767 | 0.689 | 0.674 | 0.685 | 0.183 | 0.195 | 0.213 | 0.171 | 0.193 |
| NCI-H838 | 0.975 | 0.921 | 0.976 | 1.07 | 1.29 | 0.769 | 1.07 | 1.11 | 1.02 | 0.285 | 0.274 | 0.272 | 0.341 | 0.262 | 0.839 | 0.743 | 0.849 | 0.89 | 0.852 |
